The values below come from patent US9062043B2, “Fused tricyclic compounds as serine-threonine protein kinase and PARP modulators” (SENHWA BIOSCIENCES, INC., priority 2006, dated 2015).

The subject of series [1] is HCT-116 human colorectal carcinoma cells. The experiment in a line: Cell proliferation assay, Alamar Blue, HCT-116.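 Further: cells exposed to compound for about 4 days, then Alamar Blue added and fluorescence read after about 4 h, medium-only wells as control.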 It is filed as cell-based. Conditions: HCT-116, Table 16, second HCT-116 column.
The test system of series [2] is PC-3 human prostatic cancer cells. The experiment in a line: Cell proliferation assay, Alamar Blue, PC-3. It is filed as cell-based. As to conditions: Table 16, read-out: IC50 PC3. The method, then:
(§1) A representative cell-proliferation assay protocol using Alamar Blue dye (stored at 4° C., use 20 ul per well) is described hereafter.
(§2) c. Plate 4,000-5,000 cells per well in 100 μl of medium and seed into a 96-well plate according to the following plate layout. Add cell culture medium only to wells B10 to B12. Wells B1 to B9 have cells but no compound added.
(§3) d. Add 100 μl of 2× drug dilution to each well in a concentration shown in the plate layout above. At the same time, add 100 μl of media into the control wells (wells B10 to B12). Total volume is 200 μl/well.
(§4) e. Incubate four (4) days at 37° C., 5% CO2 in a humidified incubator.
(§5) f. Add 20 μl Alamar Blue reagent to each well.
(§6) g. Incubate for four (4) hours at 37° C., 5% CO2 in a humidified incubator.
(§7) h. Record fluorescence at an excitation wavelength of 544 nm and emission wavelength of 590 nm using a microplate reader.
(§8) In the assays, cells are cultured with a test compound for approximately four days, the dye then is added to the cells and fluorescence of […] dye is detected after approximately four hours. Different types of cells can be utilized in the assays (e.g., HCT-116 human colorectal carcinoma cells, PC-3 human prostatic cancer cells and MiaPaca human pancreatic carcinoma cells). Anti-proliferative effects of representative compounds are provided hereafter.

Series [3] has as its system MiaPaca human pancreatic carcinoma cells. The experiment in a line: Cell proliferation assay, Alamar Blue, MiaPaca. It is filed as cell-based. As to conditions: MIA PaCa-2, Table 16. In outline:
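Four-day compound treatment of 4,000-5,000 seeded cells per well, then a four-hour Alamar Blue step; wells with medium only and untreated cells serve as controls, and fluorescence is taken at 544 nm excitation and 590 nm emission.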

The test system of series [4] is Hs578T. The experiment in a line: Cell proliferation assay, Alamar Blue, Hs578T. It is filed as cell-based. Conditions: Homo sapiens, Hs-578T; Table 16.
Series [5] concerns Jurkat. The experiment in a line: Cell proliferation assay, Alamar Blue, Jurkat.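 Further: cells exposed to compound for about 4 days at 37 °C, then Alamar Blue added and fluorescence read after about 4 h, controls given medium without drug.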 It is filed as cell-based. Conditions: Homo sapiens, Table 16.
For series [6], the system named is H1299. Description: Cell proliferation assay, Alamar Blue, H1299. Type of series: cell-based. As to conditions: Homo sapiens, NCI-H1299; Table 16. Here is the method: as §2, §3, §4, §5, §6, §7, §8
Series [7] relates to A549. The experiment in a line: Cell proliferation assay, Alamar Blue, A549. It is filed as cell-based. Conditions: Homo sapiens, Table 16. Here is the method:
as §2, §3, §4, §5, §6, §7, §8

Series [8] has as its system BxPC3. Description: Cell proliferation assay, Alamar Blue, BxPC3. Conditions: Homo sapiens, BXPC-3; Table 16. Type of series: cell-based. The method, then:
as §2, §3, §4, §5, §6, §7, §8

Series [9] has as its system HT29. The experiment in a line: Cell proliferation assay, Alamar Blue, HT29. It is filed as cell-based. As to conditions: Homo sapiens, HT-29; Table 16. The method, then: as §2, §3, §4, §5, §6, §7, §8
Series [10] deals with MiaPaca xenografts. The experiment in a line: Tumor suppression in MiaPaca xenograft mice. Type of series: in vivo.
Series [11] concerns A375. The experiment in a line: Cell proliferation assay, Alamar Blue, A375. It is filed as cell-based. As to conditions: Homo sapiens, A-375; A375 cells, anti-proliferative. Here is the method: as §1, §2, §3, §4, §5, §6, §7, §8
Series [12] deals with MDAMB231. Description: Cell proliferation assay, Alamar Blue, MDAMB231. Type of series: cell-based. As to conditions: Homo sapiens, MDA-MB-231; MDAMB231 cells, anti-proliferative. Here is the method:
as §1, §2, §3, §4, §5, §6, §7, §8

The subject of series [13] is Raji. Description: Cell proliferation assay, Alamar Blue, Raji. Type of series: cell-based. Conditions: Homo sapiens; Raji cells, anti-proliferative. Here is the method: as §1, §2, §3, §4, §5, §6, §7, §8
Series [14] deals with PanC1. Description: Cell proliferation assay, Alamar Blue, PanC1. It is filed as cell-based. As to conditions: Homo sapiens, PANC-1; PanC1 cells, anti-proliferative; read-out: IC50 (uM) PanC1. Here is the method:
as §1, §2, §3, §4, §5, §6, §7, §8

For series [15], the system named is LNCaP. The experiment in a line: Cell proliferation assay, Alamar Blue, LNCaP. It is filed as cell-based. Conditions: Homo sapiens; LNCaP cells, anti-proliferative. The method, then:
as §1, §2, §3, §4, §5, §6, §7, §8

The test system of series [16] is MCF-7. Description: Cell proliferation assay, Alamar Blue, MCF-7. Conditions: Homo sapiens, MCF7; MCF-7 cells, anti-proliferative. It is filed as cell-based. The method, then: as §1, §2, §3, §4, §5, §6, §7, §8
Series [17] deals with H460. Description: Cell proliferation assay, Alamar Blue, H460. It is filed as cell-based. As to conditions: Homo sapiens, NCI-H460; H460 cells, anti-proliferative. The method, then:
as §1, §2, §3, §4, §5, §6, §7, §8

Series [18] relates to HL-60. The experiment in a line: Cell proliferation assay, Alamar Blue, HL-60. Type of series: cell-based. As to conditions: Homo sapiens; HL-60 cells, anti-proliferative. The method, then:
as §1, §2, §3, §4, §5, §6, §7, §8

The subject of series [19] is COLO 205. Description: Cell proliferation assay, Alamar Blue, COLO 205. It is filed as cell-based. Conditions: Homo sapiens; COLO 205 cells, anti-proliferative. Here is the method: as §1, §2, §3, §4, §5, §6, §7, §8
Series [20] concerns SK-OV-3. The experiment in a line: Cell proliferation assay, Alamar Blue, SK-OV-3. It is filed as cell-based. As to conditions: Homo sapiens; SK-OV-3 cells, anti-proliferative. The method, then: as §1, §2, §3, §4, §5, §6, §7, §8
A short description of series [21]: Pharmacokinetics in ICR mice after IV and PO dose. It is filed as in vivo.
Series [22] relates to MCF-7 xenografts. The experiment in a line: Tumor suppression in MCF-7 xenograft animals. Type of series: in vivo, mice. As to conditions: oral 100 mg/kg. Here is the method:
(§9) Animals were handled under laminar-flow hoods.
(§10) Gemar™ administered at a dose of 80 mg/kg IP Q3D was used as a positive control.

Series [23] has as its system PC-3 xenografts. Description: Tumor suppression in PC-3 xenograft animals. As to conditions: oral 150 mg/kg. It is filed as in vivo, mice. The method, then:
as §9, §10

Series [24] relates to caspase-3. The experiment in a line: Caspase-3 staining in tumors as biomarker. Type of series: in vivo, mice. Conditions: 60 mg/kg IV. Here is the method: Caspase staining also was assessed as a biomarker for compound A1 treatment of tumors.

pIC50: −log10 of the molar value.

Regarding `O=C(O)c1ccc2c(c1)nc(Nc1cc(Cl)cc(Cl)c1)c1ccsc12` [drawing 984], the pIC50 was 5.06 in series [1]; 4.49 in [2]; 4.84 in series [3]; 5.12 in series [4]; 5.37 in series [5]; 6.01 in series [6]. Further, the pIC50 in [7] is 4.88; in series [8], 5.68; in [9], 4.89.

Regarding `O=C(O)c1ccc2c(c1)nc(Nc1cccc(C(F)(F)F)c1)c1nc(NC3CC3)ncc12` [compound A3], the Tumor progression inhibition result in series [10] (MiaPaca xenografts, IV administration) was “significantly inhibited tumor progression”.

For `CNC(=O)c1cccc(Nc2nc3cc(C(=O)O)ccc3c3sccc23)c1`, the pIC50 was less than 5.00 in series [1]; 4.57 in series [2]; less than 5.00 in series [3]; 5.04 in series [4]; 5.06 in [5]; 4.86 in [6]. Further, the pIC50 in [7] was 5.16; in [9], 5.45.

Consider `O=C(O)c1ccc2c(c1)nc(Nc1ccc(F)c(Cl)c1)c1ncsc12`, for which the pIC50 in series [1] was 4.82; in [2] it was less than 4.30; in series [3], less than 5.00; in series [4], 4.55; in [5], 4.82; in series [6] it was 4.38. Moreover, the pIC50 in series [7] and in [9] was less than 4.30 throughout.

Consider `O=C(O)c1ccc2c(c1)nc(Nc1cccc(F)c1)c1ncsc12`, for which the pIC50 in [1] is 4.82; in series [2], less than 4.30; in series [3], less than 5.00; in series [4], less than 4.30; in series [5] it was 4.40; in series [6] it was 4.66. Moreover, the pIC50 in series [7] and in [9] was less than 4.30 throughout.

As for `O=C(O)c1ccc2c(c1)nc(Nc1cc(F)cc(F)c1)c1ccsc12`, the pIC50 in series [1] is less than 5.00; in series [2], 5.21; in [3], 5.20; in series [4], 5.14; in series [5], 5.23; in series [6], 5.09. For the same compound, the results for the pIC50 in series [7] and in [9] were 5.13 and 5.70, respectively.

For `O=C(O)c1ccc2c(c1)nc(Nc1cc(Cl)cc(Cl)c1)c1ccsc12` [drawing 991], the IC50 came to 19.9 µM in series [11]; 3.89 µM in series [12]; 17.7 µM in series [13]; 20.3 µM in [14]; 6.23 µM in series [15]; 13.7 µM in [16]. Further, the IC50 in series [17] turned out to be 12.3 µM; in series [18], 1.94 µM; in [19], 1.01 µM; in series [20], 11.7 µM.

In the case of `O=C(O)c1ccc2c(c1)nc(Nc1cccc(Cl)c1)c1ccncc12` [compound A1], in series [21] (IV 5 mg/kg), the CLs was 25 mL/min/kg, the Cp0-exp was 13201 ng/mL and the Kel stood at 0.1586 h⁻¹. For the same compound, in series [21] (PO 25 mg/kg), the “F(0-8 h)” value is on record as 10.9%, the “F(0-inf h)” value turned out to be 18.7% and the Kel was 0.1076 h⁻¹. Moreover, in [21] (mouse, plasma, IV 5 mg/kg), the AUC(0-inf) came out at 3360 ng·h/mL, the AUC(0-t) came to 3340 ng·h/mL and the Vd came out at 9.4 L/kg. Moreover, in [21] (mouse, plasma, PO 25 mg/kg), the AUC(0-inf) was 3150 ng·h/mL, the AUC(0-t) was found to be 2920 ng·h/mL, the Cmax came out at 343 ng/mL and the Tmax came to 15 min. Besides, the Tumor growth inhibition result in [10] (MiaPaca xenograft, oral 100 mg/kg QDx8 then 200 mg/kg QDx5, relative to untreated control) is “significantly inhibited tumor growth”. In series [22], the Tumor growth inhibition result is on record as “significantly inhibited tumor growth”. Further, in series [23], the Tumor growth inhibition result is given as “significantly inhibited tumor growth”. Besides, the “Caspase-3 cell staining levels vs untreated control cells” value in [24] is given as “four-fold greater”.

Regarding `O=C(O)c1ccc2c(c1)nc(Nc1ccccc1)c1ncsc12`, the pIC50 in [1] was less than 5.00; in series [2], less than 4.30; in [3] it was less than 5.00; in series [4], less than 4.30; in [5], 5.13; in series [6] it was 4.41. Further, the pIC50 in series [7] and in [9] was less than 4.30 each time.

On to `O=C(NC1CC1)c1cccc(Nc2nc3cc(-c4nnn[nH]4)ccc3c3sccc23)c1`, for which the pIC50 in series [1] was less than 5.00; in [2] it was 5.27; in series [3], 5.50; in [4], 5.11; in series [5], 5.16; in [6], 4.90. Also, the pIC50 in [7] was 5.35; in series [9] it was 5.49.

Turning to `O=C(O)c1ccc2c(c1)nc(Nc1cccc(F)c1)c1ccsc12`, the pIC50 in [1] was less than 5.00; in series [2], 5.58; in series [3] it was 5.14; in series [4], 5.06; in [5], 5.23; in [6] it was 5.06. Besides, the values for the pIC50 in [7] and in series [9] were 5.21 and 5.72, respectively.
